# Read-outs that look alike come from different tables or passages of the source.
# Experiments:
# HeLa cells = assay: Cell viability of HeLa cells treated with Peloruside analogs; format: cell-based, human; details: 10 to 1000 nM
# Protocol: (§1) Cells were treated with medium, DMSO, LX3111 or LX3136 at a final concentration of 10, 50, 100, 200, 300, 400, 500, 600, 800 or 1000 nM. Cell viability was measured by counting surviving cells or measuring luminescence at 48 hours after drug treatment using the Cell Titer-Glo Luminescent Cell Viability Assay (Promega).
# SK-MEL-5 cells = assay: Cell viability of SK-MEL-5 cells treated with Peloruside analogs; format: cell-based, human; details: SK-MEL-5, 10 to 1000 nM
# Protocol: as §1
# SK-MEL-5 = assay: Growth of cultured human tumor cell line SK-MEL-5; format: cell-based; details: SK-MEL-5, up to 10 μM
# HeLa = assay: Growth of cultured human tumor cell line HeLa; format: cell-based; details: up to 10 μM
# [1] = test system: Tubulin, purified from bovine brains; assay: Tubulin polymerization in vitro; format: biochemical
# Protocol: Tubulin, purified from bovine brains and prepared in PEM-buffer (80 mM PIPES, 0.5 mM MgCl2, 1 mM EGTA, pH 6.9) was thawed under vacuum on ice. Tubulin was incubated at 37° C. until almost melted and resuspended to a final concentration of 2 mg/ml and placed on ice. Peloruside A or Taxol® was added into transparent 96-well plates (Coming Incorp. Costar) and placed on ice. GTP (Sigma) was added to a final concentration of 1 mM. The 96 well plate was warmed to 37° C. and 120 μl of tubulin solution was added into each well. The absorbance of the reaction at 340 nm over time (each 40-50 sec.) was measured on the spectrophotometer TECAN SPECTRAFluor Plus. Peloruside A or Taxol® was added to the tubulin at a final concentration of 5 or 10 μM.
Compound,inhibition of cell growth (antimitotic activity) (HeLa cells),inhibition of cell growth (antimitotic activity) (SK-MEL-5 cells),effect on the growth of cultured human tumor cell line (SK-MEL-5),effect on the growth of cultured human tumor cell line (SK-MEL-5; listed as (−)-Peloruside A),effect on the growth of cultured human tumor cell line (HeLa),effect on the growth of cultured human tumor cell line (HeLa; listed as (−)-Peloruside A),polymerization of tubulin dimers into microtubule polymers (microtubule-stabilizing activity) [1],polymerization of tubulin dimers into microtubule polymers (microtubule-stabilizing activity) ([1]; listed as (−)-Peloruside A)
CC[C@H](/C=C(/C)C1C[C@H](OC)CC(O)C(C)(C)C2(O)OC(C[C@@H](OC)C2O)C[C@@H](OC)[C@H](O)C(=O)O1)CO (stereo partly shown) [LX3111],potent antimitotic activity,potent antimitotic activity,–,–,–,–,–,–
CC[C@H](/C=C(/C)C1C[C@@H](OC)CC(O)C(C)(C)C2(O)OC(C[C@@H](OC)C2O)C[C@@H](OC)[C@H](OCOC)C(=O)O1)CO (stereo partly shown) [LX3136],potent antimitotic activity,potent antimitotic activity,–,–,–,–,–,–
(−)-Peloruside A [Compound 40],–,–,no effect on the growth,inactive,no effect on the growth,inactive,did not polymerize tubulin dimers into microtubule polymers,biologically inactive

# Source: patent publication US20040235939A1, “Synthesis of peloruside a and analogs thereof for use as antitumor agents” (priority 2003, published 2004)
